# The supplement of paper PMC10307832
# What was measured:
# Test in all cases: relative viability (nuclei count vs DMSO), 5 days (fraction); higher = more cells survive
# NCI-H1563 = system: NCI-H1563
# In short: (§1)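 Values are medians from duplicate plates. Each reflects relative viability, defined as the nuclei count of treated wells over that of vehicle wells. Lung cancer cell lines in 1536-well plates were pin-tool dosed one day after seeding with one drug alone or with a fixed anchor-drug dose plus five library-drug doses (not always all listed) in √10 steps, then fixed, stained and imaged at 4× after 5 days.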
# NCI-H1650 = system: NCI-H1650
# In short: as §1
# NCI-H2085 = system: NCI-H2085
# In short: as §1
# EPLC-272H = system: EPLC-272H
# In short: as §1
# SW 900 = system: SW 900
# In short: as §1
# RERF-LC-KJ = system: RERF-LC-KJ
# In short: as §1
# NCI-H1793 = system: NCI-H1793
# In short: as §1
# ABC-1 = system: ABC-1
# In short: as §1
# LOU-NH91 = system: LOU-NH91
# In short: as §1
# NCI-H1993 = system: NCI-H1993
# In short: as §1
# NCI-H647 = system: NCI-H647
# In short: as §1
# NCI-H3122 = system: NCI-H3122
# In short: as §1
# NCI-H520 = system: NCI-H520
# In short: as §1
# 201T = system: 201T
# In short: as §1
# EKVX = system: EKVX
# In short: as §1
# NCI-H2405 = system: NCI-H2405
# In short: as §1
# NCI-H2170 = system: NCI-H2170
# In short: as §1
# COR-L23 = system: COR-L23
# In short: as §1
# NCI-H2347 = system: NCI-H2347
# In short: as §1
# NCI-H2023 = system: NCI-H2023
# In short: as §1
# NCI-H1734 = system: NCI-H1734
# In short: as §1
# PC-14 = system: PC-14
# In short: as §1
# NCI-H441 = system: NCI-H441
# In short: as §1
smiles,measurement,setting,value
Clc1ccc(Nc2nnc(Cc3ccncc3)c3ccccc23)cc1 [Vatalanib] + Cc1nc(Nc2ncc(C(=O)Nc3c(C)cccc3Cl)s2)cc(N2CCN(CCO)CC2)n1 [Dasatinib] (partner 0.075 µM),relative viability,NCI-H1563; first compound 0.04 µM,0.45
same,relative viability,NCI-H1563; first compound 0.1265 µM,0.479
same,relative viability,NCI-H1563; first compound 0.4 µM,0.428
same,relative viability,NCI-H1563; first compound 1.265 µM,0.456
same,relative viability,NCI-H1563; first compound 4 µM,0.346
same,relative viability,NCI-H1650; first compound 0.04 µM,0.346
same,relative viability,NCI-H1650; first compound 0.1265 µM,0.275
same,relative viability,NCI-H1650; first compound 0.4 µM,0.354
same,relative viability,NCI-H1650; first compound 1.265 µM,0.217
same,relative viability,NCI-H1650; first compound 4 µM,0.289
same,relative viability,NCI-H2085; first compound 0.04 µM,0.218
same,relative viability,NCI-H2085; first compound 0.1265 µM,0.226
same,relative viability,NCI-H2085; first compound 0.4 µM,0.277
same,relative viability,NCI-H2085; first compound 1.265 µM,0.188
same,relative viability,NCI-H2085; first compound 4 µM,0.258
same,relative viability,EPLC-272H; first compound 0.04 µM,0.441
same,relative viability,EPLC-272H; first compound 0.1265 µM,0.347
same,relative viability,EPLC-272H; first compound 0.4 µM,0.449
same,relative viability,EPLC-272H; first compound 1.265 µM,0.36
same,relative viability,EPLC-272H; first compound 4 µM,0.481
same,relative viability,SW 900; first compound 0.1265 µM,0.535
same,relative viability,SW 900; first compound 0.4 µM,0.599
same,relative viability,SW 900; first compound 1.265 µM,0.474
same,relative viability,SW 900; first compound 4 µM,0.417
same,relative viability,RERF-LC-KJ; first compound 0.04 µM,0.851
same,relative viability,RERF-LC-KJ; first compound 0.1265 µM,0.828
same,relative viability,RERF-LC-KJ; first compound 0.4 µM,0.809
same,relative viability,RERF-LC-KJ; first compound 1.265 µM,0.623
same,relative viability,RERF-LC-KJ; first compound 4 µM,0.593
same,relative viability,NCI-H1793; first compound 0.04 µM,0.379
same,relative viability,NCI-H1793; first compound 0.1265 µM,0.377
same,relative viability,NCI-H1793; first compound 0.4 µM,0.458
same,relative viability,NCI-H1793; first compound 1.265 µM,0.349
same,relative viability,NCI-H1793; first compound 4 µM,0.4
same,relative viability,ABC-1; first compound 0.04 µM,0.722
same,relative viability,ABC-1; first compound 1.265 µM,0.514
same,relative viability,ABC-1; first compound 4 µM,0.581
same,relative viability,LOU-NH91; first compound 0.04 µM,0.563
same,relative viability,LOU-NH91; first compound 0.1265 µM,0.534
same,relative viability,LOU-NH91; first compound 1.265 µM,0.514
same,relative viability,LOU-NH91; first compound 4 µM,0.509
same,relative viability,NCI-H1993; first compound 0.04 µM,0.727
same,relative viability,NCI-H1993; first compound 0.1265 µM,0.651
same,relative viability,NCI-H1993; first compound 0.4 µM,0.574
same,relative viability,NCI-H1993; first compound 1.265 µM,0.552
same,relative viability,NCI-H1993; first compound 4 µM,0.578
same,relative viability,NCI-H647; first compound 0.04 µM,0.205
same,relative viability,NCI-H647; first compound 0.1265 µM,0.184
same,relative viability,NCI-H647; first compound 0.4 µM,0.212
same,relative viability,NCI-H647; first compound 1.265 µM,0.191
same,relative viability,NCI-H647; first compound 4 µM,0.148
same,relative viability,NCI-H3122; first compound 0.04 µM,0.986
same,relative viability,NCI-H3122; first compound 0.1265 µM,0.838
same,relative viability,NCI-H3122; first compound 0.4 µM,0.795
same,relative viability,NCI-H3122; first compound 1.265 µM,0.768
same,relative viability,NCI-H3122; first compound 4 µM,0.787
same,relative viability,NCI-H520; first compound 0.04 µM,0.205
same,relative viability,NCI-H520; first compound 0.1265 µM,0.202
same,relative viability,NCI-H520; first compound 0.4 µM,0.218
same,relative viability,NCI-H520; first compound 1.265 µM,0.161
same,relative viability,NCI-H520; first compound 4 µM,0.126
same,relative viability,201T; first compound 0.04 µM,0.576
same,relative viability,201T; first compound 0.1265 µM,0.564
same,relative viability,201T; first compound 0.4 µM,0.594
same,relative viability,201T; first compound 1.265 µM,0.555
same,relative viability,201T; first compound 4 µM,0.579
same,relative viability,EKVX; first compound 0.04 µM,0.651
same,relative viability,EKVX; first compound 0.1265 µM,0.5
same,relative viability,EKVX; first compound 0.4 µM,0.585
same,relative viability,EKVX; first compound 1.265 µM,0.397
same,relative viability,EKVX; first compound 4 µM,0.4
same,relative viability,NCI-H2405; first compound 0.04 µM,0.226
same,relative viability,NCI-H2405; first compound 0.1265 µM,0.195
same,relative viability,NCI-H2405; first compound 1.265 µM,0.197
same,relative viability,NCI-H2405; first compound 4 µM,0.203
same,relative viability,NCI-H2170; first compound 0.04 µM,0.521
same,relative viability,NCI-H2170; first compound 0.1265 µM,0.486
same,relative viability,NCI-H2170; first compound 0.4 µM,0.556
same,relative viability,NCI-H2170; first compound 1.265 µM,0.483
same,relative viability,NCI-H2170; first compound 4 µM,0.507
same,relative viability,COR-L23; first compound 0.04 µM,0.502
same,relative viability,COR-L23; first compound 0.1265 µM,0.502
same,relative viability,COR-L23; first compound 0.4 µM,0.651
same,relative viability,COR-L23; first compound 1.265 µM,0.414
same,relative viability,COR-L23; first compound 4 µM,0.519
same,relative viability,NCI-H2347; first compound 0.04 µM,0.295
same,relative viability,NCI-H2347; first compound 0.1265 µM,0.352
same,relative viability,NCI-H2347; first compound 0.4 µM,0.342
same,relative viability,NCI-H2347; first compound 1.265 µM,0.28
same,relative viability,NCI-H2347; first compound 4 µM,0.385
same,relative viability,NCI-H2023; first compound 0.04 µM,0.671
same,relative viability,NCI-H2023; first compound 0.1265 µM,0.563
same,relative viability,NCI-H2023; first compound 0.4 µM,0.653
same,relative viability,NCI-H2023; first compound 1.265 µM,0.484
same,relative viability,NCI-H2023; first compound 4 µM,0.482
same,relative viability,NCI-H1734; first compound 0.04 µM,0.512
same,relative viability,NCI-H1734; first compound 0.1265 µM,0.432
same,relative viability,NCI-H1734; first compound 0.4 µM,0.501
same,relative viability,NCI-H1734; first compound 1.265 µM,0.47
same,relative viability,NCI-H1734; first compound 4 µM,0.422
same,relative viability,PC-14; first compound 0.04 µM,0.318
same,relative viability,PC-14; first compound 0.1265 µM,0.248
same,relative viability,PC-14; first compound 0.4 µM,0.34
same,relative viability,PC-14; first compound 1.265 µM,0.244
same,relative viability,PC-14; first compound 4 µM,0.245
same,relative viability,NCI-H441; first compound 0.04 µM,0.634
same,relative viability,NCI-H441; first compound 0.1265 µM,0.627
same,relative viability,NCI-H441; first compound 0.4 µM,0.573
same,relative viability,NCI-H441; first compound 1.265 µM,0.605
same,relative viability,NCI-H441; first compound 4 µM,0.551
